Read-outs that look alike come from different tables or passages of the source.
Experiments:
[1] = Log P (n-octanol/water) of perfuming compounds
[2] = Volatility of perfuming compounds in air; type: physicochemical
[3] = Table 9, perfuming compounds having a gourmand note
[4] = Table 8, perfuming compounds having a sweet note
[5] = Table 10, perfuming compounds having a woody note
[6] = Table 6, perfuming compounds having a fruity note
[7] = n-octanol/water, perfuming compounds having a fruity note (Table 6)
[8] = perfuming compounds having a fruity note (Table 6)
[9] = Table 5, perfuming compounds having a green note

SMILES: CC/C=C\CC1=C(C)CCC1=O
- Log P (n-octanol/water) [1, 3]: 2.61
- logP (physchem; n-octanol/water): 2.61
- Volatility (μg/l air) [2, 4]: 56.72 μg/l air
- Volatility (μg/l air) [2, 3]: 56.72 μg/l air

SMILES: CC(=O)CCC1=C(C)CCCC1(C)C
- Log P (n-octanol/water) [1, 5]: 3.99
- logP (physchem; n-octanol/water): 3.99
- Volatility (μg/l air) [2, 4]: 63.61 μg/l air
- Volatility (μg/l air) [2, 5]: 63.61 μg/l air

SMILES: COc1cc(C=O)ccc1OC(=O)C(C)C
- Log P (n-octanol/water) [1, 4]: 1.90
- Log P (n-octanol/water) [1, 3]: 1.90
- logP (physchem; n-octanol/water): 1.9
- Volatility (μg/l air) [2, 6]: 1.01 μg/l air
- Volatility (μg/l air) [2, 4]: 1.01 μg/l air
- Volatility (μg/l air) [2, 3]: 1.01 μg/l air

SMILES: CCC(=O)/C=C/C1=C(C)CCCC1(C)C
- Log P (n-octanol/water) [1, 3]: 4.47
- logP (physchem; n-octanol/water): 4.47
- Volatility (μg/l air) [2, 4]: 15.81 μg/l air
- Volatility (μg/l air) [2, 3]: 15.81 μg/l air

SMILES: C/C=C/C(=O)C1=C(C)CCCC1(C)C
- Log P (n-octanol/water) [1, 5]: 3.63
- logP (physchem; n-octanol/water): 3.63
- Volatility (μg/l air) [2, 6]: 81.66 μg/l air
- Volatility (μg/l air) [2, 5]: 81.66 μg/l air

SMILES: CC1(C)[C@@H]2CC[C@@]1(C)C(=O)C2
- Log P (n-octanol/water) [1, 7]: 2.50
- Volatility [2, 8]: 555.04 μg/l air

SMILES: CC1(C)C2C[C@H]3CCC(=O)C=C3[C@@H]1C2
- Log P (n-octanol/water) [1, 5]: 3.00
- Volatility (μg/l air) [2, 5]: 4.86 μg/l air

SMILES: CCCC(C)=CCOC(C)=O (mixture of isomers)
- Log P (n-octanol/water) [1, 9]: 3.11
- Log P (n-octanol/water) [1, 7]: 3.11
- Volatility [2, 9]: 4131.05 μg/l air
- Volatility [2, 8]: 4131.05 μg/l air

SMILES: CC(=O)OCC=C(C)CCC=C(C)C (mixture of isomers) [GERANYL ACETATE (A) + NERYL ACETATE (B)]
- Log P (n-octanol/water) [1, 9]: 3.99
- Volatility [2, 9]: 85.23 μg/l air

SMILES: C/C=C/C(=O)[C@@H]1[C@@H](C)C=CCC1(C)C (racemic)
- Log P (n-octanol/water) [1, 3]: 4.13
- logP (physchem; n-octanol/water): 4.13
- Volatility (μg/l air) [2, 4]: 143.53 μg/l air
- Volatility (μg/l air) [2, 3]: 143.53 μg/l air

SMILES: CC1CCC2(O1)C(C)(C)CCCC2(C)O (racemic)
- Log P (n-octanol/water) [1, 5]: 3.51
- Volatility (μg/l air) [2, 5]: 84.04 μg/l air

SMILES: CC1CC(C)(c2ccccc2)CO1 (racemic)
- Log P (n-octanol/water) [1, 7]: 3.02
- logP (physchem; n-octanol/water): 3.02

SMILES: C=C(C)CC(C)OC(=O)C(C)C (racemic)
- Log P (n-octanol/water) [1, 4]: 3.57
- Log P (n-octanol/water) [1, 3]: 3.57
- logP (physchem; n-octanol/water): 3.57
- Volatility (μg/l air) [2, 4]: 9902.98 μg/l air
- Volatility (μg/l air) [2, 3]: 9902.98 μg/l air

SMILES: CC1=C[C@H](C)[C@H]2[C@H](CCC(C)(C)[C@H]2O)C1 (racemic)
- Log P (n-octanol/water) [1, 6]: 5.24
- logP (physchem; n-octanol/water): 5.24

SMILES: C/C=C/C(=O)C1C(C)=CCCC1(C)C (racemic)
- Log P (n-octanol/water) [1, 6]: 3.65
- Log P (n-octanol/water) [1, 4]: 3.65
- Log P (n-octanol/water) [1, 5]: 3.65
- logP (physchem; n-octanol/water): 3.65
- Volatility (μg/l air) [2, 6]: 113.31 μg/l air

SMILES: CC(=O)C=CC1C(C)CCC(C)C1(C)C (racemic)
- Log P (n-octanol/water) [1, 5]: 4.62
- Volatility (μg/l air) [2, 5]: 20.50 μg/l air

SMILES: C=C(C)CC(C(C)=O)C(=O)OCC (racemic)
- Log P (n-octanol/water) [1, 7]: 2.15
- logP (physchem; n-octanol/water): 2.15

SMILES: CC(=O)OC(c1ccccc1)C(Cl)(Cl)Cl (racemic) [(+−)-2,2,2-TRICHLORO-1-PHENYLETHYL ACETATE]
- Log P (n-octanol/water) [1]: 3.20
- logP (physchem; n-octanol/water): 3.2

SMILES: CCCCCC1CCCC1=O (racemic) [(+−)-2-pentylcyclopentanone]
- Log P (n-octanol/water) [1, 4]: 3.62
- Log P (n-octanol/water) [1, 3]: 3.62
- logP (physchem; n-octanol/water): 3.62
- Volatility (μg/l air) [2, 4]: 560.22 μg/l air
- Volatility (μg/l air) [2, 3]: 560.22 μg/l air

SMILES: CCCC(S)CCOC(C)=O (racemic) [(+−)-3-mercaptohexyl acetate]
- Log P (n-octanol/water) [1, 7]: 2.64
- logP (physchem; n-octanol/water): 2.64

SMILES: CC1CCC(=O)O1 (racemic) [(+−)-4-PENTANOLIDE]
- Log P (n-octanol/water) ([1]; Table 7, citrus note): −0.12
- logP (physchem): -0.12

SMILES: CCCCCCCC1CCCC(=O)O1 (racemic) [(+−)-6-heptyltetrahydro-2H-pyran-2-one]
- Log P (n-octanol/water) [1, 4]: 3.42
- Log P (n-octanol/water) [1, 3]: 3.42
- logP (physchem; n-octanol/water): 3.42
- Volatility (μg/l air) [2, 6]: 0.90 μg/l air
- Volatility (μg/l air) [2, 4]: 0.90 μg/l air
- Volatility (μg/l air) [2, 3]: 0.90 μg/l air

SMILES: CCCCCC1CCCC(=O)O1 (racemic) [(+−)-6-pentyltetrahydro-2H-pyran-2-one]
- Log P (n-octanol/water) [1, 4]: 2.22
- Log P (n-octanol/water) [1, 3]: 2.22
- logP (physchem; n-octanol/water): 2.22
- Volatility (μg/l air) [2, 6]: 9.61 μg/l air
- Volatility (μg/l air) [2, 4]: 9.61 μg/l air
- Volatility (μg/l air) [2, 3]: 9.61 μg/l air

SMILES: CCCC1CCCC(=O)O1 (racemic) [(+−)-6-propyltetrahydro-2H-pyran-2-one]
- Log P (n-octanol/water) ([1]; Table 7, citrus note): 1.47
- logP (physchem; n-octanol/water): 1.47

SMILES: COC1(C)CCC23CC1C(C)(C)C2CCC3C (racemic) [(+−)-8-methoxycedrane]
- Log P (n-octanol/water) [1, 5]: 7.59
- Volatility (μg/l air) [2, 5]: 42.22 μg/l air

SMILES: CCOC(=O)C(C)CC (racemic) [(+−)-ethyl 2-methylbutanoate]
- Log P (n-octanol/water) [1, 7]: 2.58
- logP (physchem; n-octanol/water): 2.58

SMILES: CCCCCC1C(=O)CCC1CC(=O)OC (single isomer, unassigned; (+))
- Log P (n-octanol/water) [1, 5]: 2.95
- Volatility (μg/l air) [2, 5]: 1.71 μg/l air

SMILES: CC(=O)OC(C)CCC=C(C)CCC=C(C)C (centres unmarked) [1,5,9-TRIMETHYL-4,8-DECADIENYL ACETATE]
- Log P (n-octanol/water) [1, 6]: 5.28
- logP (physchem; n-octanol/water): 5.28

SMILES: C=CCCC(=O)C1=CCCC(C)(C)C1 [1-(5,5-dimethyl-1-cyclohexen-1-yl)-4-penten-1-one]
- Log P (n-octanol/water) [1, 6]: 3.89
- logP (physchem; n-octanol/water): 3.89

SMILES: O=C(Cc1ccccc1)OCCc1ccccc1 [2-PHENYLETHYL PHENYLACETATE]
- Log P (n-octanol/water) ([1]; Table 7, citrus note): 3.59
- Log P (n-octanol/water) [1, 4]: 3.59
- Log P (n-octanol/water) [1, 3]: 3.59
- logP (physchem): 3.59

From US11427783B2, “Perfuming compositions” (Firmenich SA, priority 2016, dated 2022)
